Assays:
[1] = design: species or system C57BL/6 mice; conditions: mouse, in vivo
Source text: In this experiment, 6-8 week old C57BL/6 mice were infected with a clinical isolate of RSV 9 (strain A2) intranasally (i.n.) on day 0 (d0), and then challenged with orally inhaled mannitol on days 2 and 4 as indicated by the arrows in the schematic (top of figure). Two hours after each mannitol inhalation, urine was collected from mice by scruffing, and analyzed for mannitol using a colorimetric assay. They are expressed as fold change in urine mannitol relative to uninfected control mice on d0, which was set at 1. Data are mean±standard error of the mean, of n=5-6 mice per group. * indicated p<0.05.

[2] = urinary mannitol clearance after inhaled mannitol in human subjects; assay type: in vivo; conditions: 635 mg inhaled mannitol; urine over 24 hours, mass spectrometry; 6 subjects with asthma symptoms vs 2 healthy controls
Source text: Results are expressed as urinary mannitol clearance, or the concentration in the urine samples collected multiplied by the amount of urine produced. […] The horizontal bar indicates mean values.

[3] = tested on: 16HBE cells; test: flux of mannitol across human bronchial epithelial monolayers; assay type: in vitro ADME; conditions: 16HBE cells confluent on semipermeable membrane; lower chamber after 1 hour, colorimetric assay; unstimulated or PolyI:C pretreated 18 hours
Method: The x-axis indicates the concentration of mannitol applied to the upper chamber of 16HBE cells grown to confluence on a semipermeable membrane. The y-axis indicates the concentration of mannitol detected in the lower chamber after 1 hour, determined using a colorimetric assay (where OD refers to optical density). 16HBE cells were either unstimulated (open bars) or pretreated with the viral mimetic PolyI:C (closed bars) for 18 hours prior to analysis of mannitol permeability. Note that in both unstimulated and PolyI:C-stimulated cells, the mannitol concentration detected in the lower chamber increased steadily with the concentration of mannitol applied to the top chamber (i.e. there was no plateau). This is indicative of movement across the monolayer via paracellular routes (as opposed to receptor mediated transport, for example).

OC[C@@H](O)[C@@H](O)[C@H](O)[C@H](O)CO [mannitol]
excretion of orally inhaled mannitol (fold change in urine mannitol relative to uninfected control mice on d0) [1]: higher in mice infected with respiratory syncytial virus (RSV) infection | urinary mannitol clearance [2]: Subjects with asthma symptoms had higher mannitol clearance on average | flux of mannitol across the monolayer [3]: non-saturable

Reference: US20150168386A1, “METHOD AND SYSTEM FOR IDENTIFYING LEAKY LUNG EPITHELIAL BARRIER” (priority 2013, published 2015)
